According to patent publication US20100292316A1, “IMPROVED THERAPEUTIC METHODS AND COMPOSITIONS COMPRISING CHROMAN RING COMPOUNDS” (Research Development Foundation, priority 2007, published 2010):

Columns and labels:
Format in all cases: cell-based, human
c-Jun = c-Jun phosphorylation (JNK substrate) by Western blot
Experimental: Similar results were also observed in α-TEA treated MCF-7 cells in the presence of JNK inhibitor II (7.5 μM of JNK inhibitor II (Calbiochem-Novabiochem Corp. San Diego, Calif.) vs. DMSO control). Specifically, 68% reduction in the level of phosphorylated c-Jun (FIG. 11B, top panel), almost 100% reduction in NOXA expression (FIG. 11B, second panel), and 29% reduction in the level of PARP cleavage (FIG. 11B, third panel).
JNK siRNA was used to determine if JNK was involved in α-TEA regulation of NOXA expression. MDA-MB-435 and MCF-7 cells were transiently transfected with siRNA specific for JNK1/2 (JNK1/2 sense (5′-AAA GAA UGU CCU ACC UUC Utt-3′), JNK1/2 antisense (5′AGA AGG UAG GAC AUU CUU Utt-3′)). The cells were then treated with α-TEA for 15 h, or 20 h, respectively. […] Likewise in MCF-7 cells JNK siRNA blocked JNK1 phosphorylation by 26% (FIG. 11D, first panel), blocked c-Jun phosphorylation by 36% (FIG. 1D, second panel), reduced protein levels of full length p73 by 66% (FIG. 1D, third panel), reduced protein levels of NOXA by 14% (FIG. 1D, fourth panel), and reduced level of PARP cleavage by 44% (FIG. 11D, fifth panel). Anti-p73 antibodies used in the foregoing experiment were purchases from IMGENEX (San Diego, Calif.).

NOXA = NOXA mRNA (RT-PCR) and protein (Western blot) levels
PARP = PARP cleavage (p84) by Western blot, densitometry
Experimental: Whole-cell protein extracts were prepared as described previously (Yu et al., 1999), and 50 μg of protein was loaded per lane, separated using SDS-PAGE on a 10-15% gel under reducing conditions, and electroblotted onto a nitrocellulose membrane ([…] Optitran BA-S-supported nitrocellulose; Schleicher and Schuell, Keene, N.H.). Equal loading was verified using GAPDH antibody. Primary rabbit antibodies with specificity for PARP and primary goat antibody with specificity for Arg were purchased from Santa Cruz Biotechnology (Santa Cruz, Calif.). Horseradish peroxidase conjugated goat anti-rabbit or horseradish goat anti-mouse secondary antibody was purchased from Jackson Immunoresearch Laboratory (West Grove, Pa.). Horseradish peroxidase-conjugated donkey anti-goat serum was purchased from Santa Cruz Biotechnology. Immune complexes were visualized using enhanced chemiluminescence detection (Pierce Chemical Co., Rockford, Ill.). Fold differences in level of chemiluminescence were determined by densitometric analyses.
Primary mouse antibody specific for p73 was purchased from IMGENEX (San Diego, Calif.). Primary mouse antibody specific for caspase 8 was purchased from Cell Signaling Technology (Beverly, Mass.). Horseradish peroxidase conjugated goat anti-rabbit or goat anti-mouse secondary antibodies were purchased from Jackson Immunoresearch Laboratory (West Grove, Pa.). Horseradish peroxidase-conjugated donkey […] serum was purchased from Santa Cruz Biotechnology. Immune complexes were visualized using enhanced chemiluminescence detection (Pierce Chemical Co., Rockford, Ill.). Fold differences in level of chemiluminescence were determined by densitometric analyses.

PC-3-GFP cells = test: Apoptosis by DAPI staining, PC-3-GFP
Experimental: (§1) Assessment of apoptosis based on nuclear morphology using 4′, 6-diamidino-2-phenylindole dihydrochloride (DAPI; Boehringer Mannheim Corp. Indianapolis, Ind.) has been described previously (Yu et al., 2003; Israel et al., 2000). Briefly, 1.5×10^5/well LNCaP or PC-3-GFP cells were plated in 12-well tissue culture plates and cultured overnight to allow cells to attach. On the next day, cells were treated with various concentrations of α-TEA and incubated for various time periods. At the end of treatments, cells were collected, washed with PBS, stained with 25 μl of 2 μg/ml DAPI, and viewed under a fluorescent microscope (model ICM 405 with a model 487701 filter, Zeiss). Cells which contained clearly condensed chromatin or fragmented nuclei were scored as apoptotic cells. ≧500 cells were counted in each sample. Apoptotic data are presented as percentage of apoptotic cells±S.D. for three independent experiments.

Akt = test: Western blot of phosphorylated Akt (Ser 473) and total Akt in prostate cancer cells
From the text: Previous studies have shown that α-TEA is an effective inducer of apoptosis in human prostate cancer cells (Anderson et al., 2004). Dose- and time-dependent pro-apoptotic effects of α-TEA in prostate cancer cells are mediated by Fas/FADD/caspase-8/tBid and Fas/Daxx/Ask1/JNK1/2/Bax, leading to activation of caspases-9 and -3. Thus, the Akt inhibiting activity of α-TEA was investigated in prostate cancer cells. Since phosphorylation of Akt at Ser 473 is required for its full activation (Cheng et al., 2005), we examined the phosphorylation status of Akt using an antibody that specifically recognizes Akt phosphorylated at Ser 473 in all three Akt isoforms (Upstate Cell Signaling Solutions (Charlottesville, Va.)). α-TEA decreased the levels of the phosphorylated forms of Akt. […] As verification that the decreases in phosphorylation status of Akt correlated with decreased kinase activity, the phosphorylation status of GSK3β, a downstream Akt target, was evaluated following α-TEA treatments. […] GAPDH levels were assayed with each immunoblot assay as a protein loading control.
Since Akt has three isoforms; namely, Akt1, Akt2, and Akt3, it was of interest to determine if α-TEA treatment was reducing the phosphorylated status of all three isoforms. Following α-TEA treatment the three Akt isoforms were immunoprecipitated with isoform specific antibodies, followed by western immunoblotting analyses using antibody specific for phospho-Akt. The protein levels of the isoforms were also determined. […] Treatment diminished the phosphorylation levels in all three Akt isoforms in both LNCaP and PC-3-GFP cells.
1×10^7 LNCaP or PC-3 3-GFP cells were treated with α-TEA and lysed in RIPA lysis buffer in the presence of protease inhibitors. […] Beads were washed 4 times with PBS and the proteins were released from the beads by boiling in Laemmli buffer for 5 min. Immunoprecipitated proteins were identified by SDS-PAGE followed by western immunoblot analyses.
Since Akt is activated, at least in part, by PI3K, we were interested to see if blockage of PI3K activity using the PI3K inhibitor LY294002 (Calbiochem-Novabiochem Corp. (San Diego, Calif.)) (Vlahos et al., 1994) would augment the apoptotic response induced by α-TEA.

LNCaP cells = test: Apoptosis by DAPI staining, LNCaP
Experimental: Cells were plated at 2×10^6 in 100 mm cell culture plates, cultured overnight and washed with serum free media before transfection. Plasmids (0.7 μg or 4.2 of μg) or empty vector (pcDNA3) were mixed with 50 μl or 300 μl serum free media and 4 μl or 24 μl PLUS reagent (Invitrogen, CA) and incubated for 15 min at room temperature. Next 2 μl or 12 μl of Lipofectamine reagent (Invitrogen, CA) in 50 μl or 300 μl serum free media were added and the mixture incubated for another 15 min before adding to the cells in 0.5 ml or 5 ml serum free media. Cells were incubated with transfection reagents for 3 h and the growth media containing 2×FBS was added to the cells. Transfected cells were cultured overnight before α-TEA treatment. Transfection efficiency was determined to be 70% using GFP expressing plasmid.
as §1
FOXO1 siRNA used in the study was purchased from Santa Cruz (Santa Cruz, Calif.). […] Transfection of human prostate cancer cells with FOXO1 siRNA or negative control siRNA was performed in 100 mm cell culture dishes at a density of 2×10^6 cells/dish using Lipofectamine 2000 (Invitrogen, Carlsbad, Calif.) and 300 pmol of siRNA duplex, resulting in a final siRNA concentration of 30 nM. siRNA transfected cells were incubated for 48-72 h prior to α-TEA treatment.

[1] = MCF-7 cells, 40 μM α-TEA 20 h, vs DMSO or control siRNA
[2] = MDA-MB-435 cells, 40 μM α-TEA 15 h, vs vehicle or control siRNA

SMILES	reduction of α-TEA-induced c-Jun phosphorylation (c-Jun; [1]) [%]	reduction of α-TEA-induced c-Jun phosphorylation (c-Jun; [2]) [%]	reduction of α-TEA-induced NOXA expression (NOXA; [1]) [%]	reduction of α-TEA-induced NOXA expression (NOXA; [2]) [%]	reduction of level of PARP cleavage in α-TEA treated cells (PARP; [1]) [%]	reduction of PARP cleavage (p84 fragment) in α-TEA treated cells (PARP; MDA-MB-435 cells, 40 μM α-TEA 15 h, vs control siRNA or vehicle) [%]	apoptotic cells (PC-3-GFP cells; 25 μM LY294002, 24 h) [%]	apoptotic cells (PC-3-GFP cells; 50 μM LY294002, 24 h)	inhibition of levels of endogenously phosphorylated Akt (Akt; LNCaP cells, 10 μM α-TEA and/or 10 μM LY294002) [%]	inhibition of levels of endogenously phosphorylated Akt (Akt; PC-3-GFP cells, 20 μM α-TEA and/or 10 μM LY294002) [%]	induction of apoptosis (apoptotic cells) (LNCaP cells; 6 μM LY294002, 24 h) [%]	induction of apoptosis (apoptotic cells) (LNCaP cells; 12 μM LY294002, 24 h) [%]	induction of apoptosis (apoptotic cells) (LNCaP cells; 25 μM LY294002, 24 h) [%]
O=C1c2ccccc2-c2n[nH]c3cccc1c23 [JNK inhibitor II]	68	38	~100	41	29	34	–	–	–	–	–	–	–
O=c1cc(N2CCOCC2)oc2c(-c3ccccc3)cccc12 [LY294002, 2-(4-morpholinyl)-8-phenyl-4H-1-benzopyran-4-one, reference compound]	–	–	–	–	–	–	6.2	approximately 15%	20	60	4.9	13	41
